Source: patent US11786507B2, “Methods of treating HIV-associated neurological disorders (HAND)” (priority 2020, dated 2023)

Experiments:
Assay type in all cases: in vivo, mouse
iTat mice = test: Morris Water Maze (MWZ), training stage and probe test; settings: mouse, in vivo
Excerpt: (§1) Doxycycline (Dox)-inducible and astrocyte-specific HIV-1 Tat-transgenic mice (iTat) were generated as previously described.^38 Wild-type (Wt, C57BL/6) and α7 nAChR knockout mice (α7^−/−, B6.129S7-Chrna^7tm1Ba/J) were purchased from the Jackson Laboratory (Bar Harbor, ME). All the animal procedures were approved by the Institutional Animal Care and Use Committee. Mice were housed with a 12-hour light and 12-hour dark photoperiod and provided water and food ad libitum. α7^−/− iTat mice were generated by cross breeding iTat mice with α7^−/− mice. α7^−/− genotyping was slightly modified with the JumpStart™ Taq DNA Polymerase-based PCR (JumpStart™ Taq DNA Polymerase, Sigma, catalog #D9307). […] Mice of 10-14 weeks old with body weights of 20-35 grams were fed with Dox-containing diet (0.625 g/kg, Envigo, catalog #TD.01306) as stated.
Open Field Test (OPT) and Morris Water Maze (MWZ) were performed sequentially using a computerized video tracking system (Anymaze, Stoelting) to determine the spontaneous locomotor activity and spatial learning and memory, respectively. For OPT, each mouse was allowed to move freely around a clear acrylic chamber (40.5×40.5×30.5 cm) for 10 minutes. Travel distance and maximum speed was determined by the AnyMaze software. For MWZ, a circle pool (1.2 m diameter) surrounded with a curtain was divided into four equal quadrants, and four signs with different shape were fixed onto the middle of each quadrant wall above the opaque water (24±1° C.). A hidden platform (1.5 cm below water surface) was put into a certain quadrant. Two stages consisting of 5-day training and probe test were carried out. In the training stage, four trials with a 15-20 minute interval were conducted in the every-day training, and for each trial mice were allowed to freely seek the platform within 90 seconds right after they were randomly put into one quadrant facing to the pool wall. If the mice found the platform within 90 seconds, 10 seconds would be added to allow them staying on the platform for memorizing, however, if failed, they would be directed toward the platform and allowed to stay on it for 15 seconds. Mice that were immobile or floating and unable to find the platform during the training stages were excluded from the experiments. Probe test was carried out on the next day following the 5-day training stage with a 60 seconds trial, and the platform was removed to prevent the mice from climbing onto it during the testing. One day after the behavioral tests, mice were euthanized and the brains were harvested.
To determine if α7 nAChR is involved in HAND, iTat mice were fed with Dox-containing food pellets for 7 days, […], and then subjected to open field test (OPT) for locomotor activity on day 14, and Morris Water Maze test (MWZ) for learning and spatial memory on day 15-20, and euthanized to harvest tissues on day 21 (FIG. 1A). Dox-containing food pellet feeding and PAM injection continued during the next 7 days of behavioral tests. To minimize the effects of injection on behavioral tests, PAM was injected 5 hours after each behavioral test.

MAPK signaling pathways = test: Western blotting of total and phosphorylated p38, JNK, ERK in cortex and hippocampus; settings: PAM 15 mg/kg/day s.c.
Excerpt: as §1
A RIPA buffer (50 mM Tris.HCl, pH 8.0, 280 mM NaCl, 0.5% NP-40, 1% C24H39NaO4, 0.2 mM EDTA, 2 mM EGTA and 10% glycerol) supplemented with protease inhibitors (Millipore-Sigma, catalog #S8830) and phosphatase inhibitors (Millipore-Sigma, catalog #4906845001) was used to lyse the brain tissues and cultured cells with brief sonication on ice. Protein concentrations of the lysates were determined using a Bio-Rad DC protein assay kit (Bio-Rad, catalog #5000111). Lysates were denatured in the SDS-PAGE loading buffer at 100° C. for 10 min, then electrophoretically separated by 8-15% SDS-PAGE, blotted onto 0.45 μm polyvinylidene fluoride membrane (GE Healthcare Life Sciences, catalog #10600023), and probed using appropriate antibodies against PSD-95 (Abcam, catalog #ab18258, and 1:2000 dilution), SYP (Abcam, catalog #ab8049, and 1:1000 dilution), Iba-1 (Wako, catalog #016-20001, and 1:500 dilution) and GFAP (DAKO, catalog #z330s, and 1:2000 dilution), p-p38 (Santa Cruz, catalog #sc-166182, and 1:1000 dilution), p38 (Santa cruz, catalog #sc-535, and 1:1000 dilution), p-JNK (Santa cruz, catalog #sc-6254, and 1:1000 dilution), JNK (Santa cruz, catalog #sc-571, and 1:1000 dilution), p-ERK (Santa cruz, catalog #sc-7383, and 1:1000 dilution), and ERK (Santa cruz, catalog #sc-514302, and 1:1000 dilution), α7 nAChR (Alomone, catalog #ANC-007, and 1:1000 dilution) and β-actin (Sigma-Aldrich, catalog #A1978, and 1:2000 dilution). A Bio-Rad ChemicDoc imaging system (Bio-Rad) and Image J were used for image capturing and analysis, respectively.
It was next determined which MAPK signaling pathways were responsive to PAM neuroprotective effects against Tat-induced neuropathologies. Both CORT and HIP were analyzed for expression and phosphorylation of p38, JNK, and ERK.

α7 nAChR = α7 nAChR expression in brain tissue (Western blotting, immunofluorescence)
Procedure: FIG. 11A-FIG. 11E show the α7 nAChR expression in the brain, cortical neurons, microglia, and astrocytes in response to Tat and PAM. Western blotting was performed in the same samples of FIG. 1D (FIG. 11A & FIG. 11B, mouse brain tissue, n=6/group, three males, and three females) and FIG. 4A (FIG. 11D & FIG. 11E, primary cells, and n=3/group) using an anti-α7 nAChR antibody. Immunofluorescent staining (FIG. 11C, scale bars 20 μm) of the brain tissues was also performed using an anti-α7 nAChR antibody. p<0.05 was considered significant and marked as *; p<0.01 and p<0.001 were both considered highly significant and marked as ** and ***, respectively.
A RIPA buffer (50 mM Tris.HCl, pH 8.0, 280 mM NaCl, 0.5% NP-40, 1% C24H39NaO4, 0.2 mM EDTA, 2 mM EGTA and 10% glycerol) supplemented with protease inhibitors (Millipore-Sigma, catalog #S8830) and phosphatase inhibitors (Millipore-Sigma, catalog #4906845001) was used to lyse the brain tissues and cultured cells with brief sonication on ice. Protein concentrations of the lysates were determined using a Bio-Rad DC protein assay kit (Bio-Rad, catalog #5000111). […]

## COc1cc(OC)c(NC(=O)Nc2cc(C)on2)cc1Cl [PAM, 1-(5-chloro-2,4-dimethoxy-phenyl)-3-(5-methyl-isoxazol-3-yl)-urea]
iTat mice
  MWZ probe test latency to platform: decreases of latency to platform in both male iTat and Wt mice
  MWZ probe test platform entries, time at platform, distance to platform: no differences
  MWZ probe test time at target quadrant and distance to target quadrant: reversed by PAM treatment with the differences in distance to target quadrant
  MWZ training stage cumulative travel distance: differences of cumulative travel times in male iTat mice on day 4 and female iTat mice on day 2
  MWZ training stage escape latency and cumulative distance: only some improvements on male Wt mice
  MWZ training stage escape latency time: differences of escape latency time in male iTat mice on day 4 and 5 and female iTat mice on day 2 and 4
MAPK signaling pathways; CORT and HIP
  p38 and p-p38α: increases of both p38 and p-p38α in both CORT and HIP
MAPK signaling pathways; CORT and HIP, iTat and Wt mice
  p-ERK: no differences of p-ERK in CORT and HIP of both iTat and Wt mice
MAPK signaling pathways; CORT, Wt and iTat mice
  JNK: increases of JNK in CORT of Wt mice, increases of JNK in CORT of iTat mice
MAPK signaling pathways; CORT, all mice
  p-JNK: no differences of p-JNK in CORT of all mice
MAPK signaling pathways; HIP, all mice
  JNK and p-JNK: increases of JNK and p-JNK in HIP of all mice
MAPK signaling pathways; HIP, iTat mice
  ERK: decreases of ERK in HIP of iTat mice
α7 nAChR; cortex of iTat mice
  α7 nAChR expression: increased in cortex
α7 nAChR; hippocampus of iTat mice
  α7 nAChR expression: only decreased in hippocampus by both Tat expression and PAM treatment
